Values quoted from earlier work, collected in patent US11389398B2, “Gastroretentive treatment of nocturnal symptoms and morning akinesia in subjects with parkinson's disease” (priority 2019, dated 2022).
Like-named read-outs stand apart in the source and are kept apart here.

delay in the identification of circulating plasma levodopa levels after meals (controlled release tablets (Contin 1998)): 30 to 75 min
delay in the identification of circulating plasma levodopa levels after meals (immediate release tablets (Baruzzi 1987)): 29 to 60 min
SMILES: N[C@@H](Cc1ccc(O)c(O)c1)C(=O)O [levodopa, 3-hydroxy-L-Tyrosine]
